Experimental findings from ChEMBL document CHEMBL1143091, “Synthesis and SAR studies of biaryloxy-substituted triazoles as antifungal agents” (2008) are described below.

≈ marks a conversion by molar mass, not a printed value. Where only a bound is given, the exact number is not on record here.

What all share (format): functional
The test system of experiment [1] is Candida albicans. The experiment can be described thus: Antimicrobial activity against Candida albicans ATCC 76615.
Experiment [2] relates to Nannizzia gypsea. The experiment can be described thus: Antimicrobial activity against Microsporum gypseum isolates.
The subject of experiment [3] is Candida tropicalis. Put plainly: Antimicrobial activity against Candida tropicalis isolates.
Experiment [4] concerns Candida parapsilosis. The experiment can be described thus: Antimicrobial activity against […] isolates. To be noted: Lodderomyces parapsilosis.
Experiment [5] deals with Aspergillus fumigatus. The experiment can be described thus: Antimicrobial activity against Aspergillus fumigatus isolates.
Experiment [6] relates to Trichophyton rubrum. The experiment can be described thus: Antimicrobial activity against Trichophyton rubrum isolates.
Experiment [7] deals with Cryptococcus neoformans. Put plainly: Antimicrobial activity against Cryptococcus neoformans ATCC 32609.
Experiment [8] relates to Fonsecaea compacta. The experiment can be described thus: Antimicrobial activity against Fonsecaea compacta isolates.

For the molecule `ON=Cc1ccc(-c2ccc(OCC(O)(Cn3cncn3)c3ccc(F)cc3F)cc2)cc1` (stereo not drawn), the minimal inhibitory concentration (MIC) was 0.0039 µg/mL (≈ 0.00866 µM) in experiment [1]; 1 µg/mL (≈ 2.22 µM) in experiment [2]; 0.0156 µg/mL (≈ 0.0346 µM) in experiment [3]; 0.0039 µg/mL (≈ 0.00866 µM) in experiment [4]; above 64 µg/mL in experiment [5]; 1 µg/mL (≈ 2.22 µM) in experiment [6]. The MIC in experiment [7] and in experiment [8] was 1 µg/mL (≈ 2.22 µM) in each case.

A word on the MIC: it is the lowest concentration that inhibits growth of the organism. Read a low MIC as a more susceptible organism.
